Data taken from patent US8492429B2, “Combination of IAP inhibitors and FLT3 inhibitors” (Novartis AG, priority 2006, dated 2013).

System: Ba/F3-FLT3-ITD cells
Assay: Proliferation of cells cultured in the presence and absence of WEHI (IL-3)
Format: cell-based, murine
Conditions: WEHI as source of IL-3

Structure (SMILES): CNC(C)C(=O)NC(C(=O)N1CCC2CCN(CCc3ccccc3)CC21)C1CCCCC1 (stereo not shown) [LBW242]
- Inhibition of cellular proliferation in the presence and absence of IL-3: inhibits proliferation of Ba/F3-FLT3-ITD cells in both the absence, as well as the presence of IL-3
